Laboratory results reported in ChEMBL document CHEMBL1143799, “Synthesis and primary cytotoxicity evaluation of new imidazo[2,1-b]thiazole derivatives” (2007).

What was measured:
Format in all cases: functional
ACHN = test: Growth inhibition of human ACHN cells after 48 hrs by SRB protein assay
OVCAR-5 = test: Growth inhibition of human OVCAR5 cells after 48 hrs by SRB protein assay; details: OVCAR-5, 48 h
KM12 = test: Growth inhibition of human KM12 cells after 48 hrs by SRB protein assay; details: KM12, 48 h
EKVX = test: Growth inhibition of human EKVX cells after 48 hrs by SRB protein assay
CAKI-1 = test: Growth inhibition of human CAKI1 cells after 48 hrs by SRB protein assay; details: CAKI-1, 48 h
UO-31 = test: Growth inhibition of human UO31 cells after 48 hrs by SRB protein assay; details: UO-31, 48 h
HCC 2998 = test: Growth inhibition of human HCC2998 cells after 48 hrs by SRB protein assay; details: HCC 2998, 48 h
NCI-H460 = test: Growth inhibition of human NCI-H460 cells after 48 hrs by SRB protein assay; details: NCI-H460, 48 h
COLO 205 = test: Growth inhibition of human COLO205 cells after 48 hrs by SRB protein assay; details: COLO 205, 48 h
SF-295 = test: Growth inhibition of human SF295 cells after 48 hrs by SRB protein assay; details: SF-295, 48 h
SNB-75 = test: Growth inhibition of human SNB75 cells after 48 hrs by SRB protein assay; details: SNB-75, 48 h
T47D = test: Growth inhibition of human T47D cells after 48 hrs by SRB protein assay
UACC-62 = test: Growth inhibition of human UACC62 cells after 48 hrs by SRB protein assay; details: UACC-62, 48 h
NCI-H322M = test: Growth inhibition of human NCI-H322M cells after 48 hrs by SRB protein assay
SF-539 = test: Growth inhibition of human SF539 cells after 48 hrs by SRB protein assay; details: SF-539, 48 h
SNB-19 = test: Growth inhibition of human SNB19 cells after 48 hrs by SRB protein assay; details: SNB-19, 48 h
RXF 393 = test: Growth inhibition of human RXF393 cells after 48 hrs by SRB protein assay; details: RXF 393, 48 h
SN12C = test: Growth inhibition of human SN12C cells after 48 hrs by SRB protein assay
NCI-H522 = test: Growth inhibition of human NCI-H522 cells after 48 hrs by SRB protein assay; details: NCI-H522, 48 h
[1] = Growth inhibition of human 786O cells after 48 hrs by SRB protein assay; details: 786-0, 48 h
U-251 = test: Growth inhibition human U251 of cells after 48 hrs by SRB protein assay; details: U-251, 48 h
A549 = test: Growth inhibition of human A549 cells after 48 hrs by SRB protein assay; details: A549, 48 h
NCI-H23 = test: Growth inhibition of human NCI-H23 cells after 48 hrs by SRB protein assay; details: NCI-H23, 48 h
SK-OV-3 = test: Growth inhibition of human SK-OV-3 cells after 48 hrs by SRB protein assay; details: SK-OV-3, 48 h
BT-549 = test: Growth inhibition of human BT549 cells after 48 hrs by SRB protein assay; details: BT-549, 48 h
MCF7 = test: Growth inhibition of human MCF7 cells after 48 hrs by SRB protein assay; details: MCF7, 48 h
UACC-257 = test: Growth inhibition of human UACC257 cells after 48 hrs by SRB protein assay; details: UACC-257, 48 h
RPMI-8226 = test: Growth inhibition of human RPMI8226 cells after 48 hrs by SRB protein assay; details: RPMI-8226, 48 h
PC-3 = test: Growth inhibition of human PC3 cells after 48 hrs by SRB protein assay; details: PC-3, 48 h
MDA-MB-231 = test: Growth inhibition of MDA-MB-231 cells after 48 hrs by SRB protein assay; details: Homo sapiens, MDA-MB-231, 48 h
M14 = test: Growth inhibition of human M14 cells after 48 hrs by SRB protein assay; details: M14, 48 h
CCRF-CEM = test: Growth inhibition of human CCRF-CEM cells after 48 hrs by SRB protein assay
MOLT-4 = test: Growth inhibition of human MOLT4 cells after 48 hrs by SRB protein assay; details: MOLT-4, 48 h
SK-MEL-5 = test: Growth inhibition of human SK-MEL-5 cells after 48 hrs by SRB protein assay; details: SK-MEL-5, 48 h
IGROV-1 = test: Growth inhibition of human IGROV1 cells after 48 hrs by SRB protein assay; details: IGROV-1, 48 h
HOP-92 = test: Growth inhibition of human HOP92 cells after 48 hrs by SRB protein assay; details: HOP-92, 48 h
OVCAR-8 = test: Growth inhibition of human OVCAR8 cells after 48 hrs by SRB protein assay; details: OVCAR-8, 48 h
SK-MEL-28 = test: Growth inhibition of human SK-MEL-28 cells after 48 hrs by SRB protein assay; details: SK-MEL-28, 48 h
DU-145 = test: Growth inhibition of human DU145 cells after 48 hrs by SRB protein assay; details: DU-145, 48 h

Structure (SMILES): O=C(Cc1csc2nc(-c3ccc(Br)cc3)cn12)N/N=C/c1ccccc1O
- GI50 (ACHN): 1.58 µM
- TGI (ACHN; read-out: Log TGI (converted)): 6.31 µM
- GI50 (OVCAR-5): 5.5 µM
- TGI (OVCAR-5; read-out: Log TGI (converted)): 31.6 µM
- GI50 (KM12): 3.63 µM
- TGI (KM12; read-out: Log TGI (converted)): 17 µM
- GI50 (EKVX): 3.89 µM
- TGI (EKVX; read-out: Log TGI (converted)): 19.1 µM
- GI50 (CAKI-1): 0.398 µM
- TGI (CAKI-1; read-out: Log TGI (converted)): 2.4 µM
- GI50 (UO-31): 7.08 µM
- TGI (UO-31; read-out: Log TGI (converted)): > 100 µM
- GI50 (HCC 2998): 3.47 µM
- TGI (HCC 2998; read-out: Log TGI (converted)): 12.6 µM
- GI50 (NCI-H460): 15.8 µM
- TGI (NCI-H460; read-out: Log TGI (converted)): > 100 µM
- GI50 (COLO 205): 5.13 µM
- TGI (COLO 205; read-out: Log TGI (converted)): 22.9 µM
- GI50 (SF-295): 2.75 µM
- TGI (SF-295; read-out: Log TGI (converted)): 9.33 µM
- GI50 (SNB-75): 12.9 µM
- TGI (SNB-75; read-out: Log TGI (converted)): 32.4 µM
- GI50 (T47D): 5.25 µM
- TGI (T47D; read-out: Log TGI (converted)): 23.4 µM
- GI50 (UACC-62): 2.09 µM
- TGI (UACC-62; read-out: Log TGI (converted)): 7.24 µM
- GI50 (NCI-H322M): 2.14 µM
- TGI (NCI-H322M; read-out: Log TGI (converted)): 10.7 µM
- GI50 (SF-539): 3.55 µM
- TGI (SF-539; read-out: Log TGI (converted)): 11.7 µM
- GI50 (SNB-19): 6.76 µM
- TGI (SNB-19; read-out: Log TGI (converted)): 25.1 µM
- GI50 (RXF 393): 38 µM
- TGI (RXF 393; read-out: Log TGI (converted)): 63.1 µM
- GI50 (SN12C): 3.31 µM
- TGI (SN12C; read-out: Log TGI (converted)): 15.8 µM
- GI50 (NCI-H522): 5.25 µM
- TGI (NCI-H522; read-out: Log TGI (converted)): 26.9 µM
- GI50 [1]: 4.68 µM
- TGI ([1]; read-out: Log TGI (converted)): 17.8 µM
- GI50 (U-251): 3.63 µM
- TGI (U-251; read-out: Log TGI (converted)): 15.1 µM
- GI50 (A549): 6.17 µM
- TGI (A549; read-out: Log TGI (converted)): 24 µM
- GI50 (NCI-H23): 3.39 µM
- TGI (NCI-H23; read-out: Log TGI (converted)): 14.1 µM
- GI50 (SK-OV-3): 12.9 µM
- TGI (SK-OV-3; read-out: Log TGI (converted)): 30.2 µM
- GI50 (BT-549): 10 µM
- TGI (BT-549; read-out: Log TGI (converted)): 22.4 µM
- GI50 (MCF7): 13.2 µM
- TGI (MCF7; read-out: Log TGI (converted)): > 100 µM
- GI50 (UACC-257): 3.72 µM
- TGI (UACC-257; read-out: Log TGI (converted)): 11.5 µM
- GI50 (RPMI-8226): 2.82 µM
- TGI (RPMI-8226; read-out: Log TGI (converted)): 20.9 µM
- GI50 (PC-3): 4.27 µM
- TGI (PC-3; read-out: Log TGI (converted)): 16.6 µM
- GI50 (MDA-MB-231): 3.24 µM
- TGI (MDA-MB-231; read-out: Log TGI (converted)): 17 µM
- GI50 (M14): 2.57 µM
- TGI (M14; read-out: Log TGI (converted)): 7.76 µM
- GI50 (CCRF-CEM): 1.82 µM
- TGI (CCRF-CEM; read-out: Log TGI (converted)): 8.32 µM
- GI50 (MOLT-4): 2.34 µM
- TGI (MOLT-4; read-out: Log TGI (converted)): 10.7 µM
- GI50 (SK-MEL-5): 2.95 µM
- TGI (SK-MEL-5; read-out: Log TGI (converted)): 10.7 µM
- GI50 (IGROV-1): 1.05 µM
- TGI (IGROV-1; read-out: Log TGI (converted)): 11.5 µM
- GI50 (HOP-92): 2.09 µM
- TGI (HOP-92; read-out: Log TGI (converted)): 14.5 µM
- GI50 (OVCAR-8): 2.29 µM
- TGI (OVCAR-8; read-out: Log TGI (converted)): 12.3 µM
- GI50 (SK-MEL-28): 12 µM
- TGI (SK-MEL-28; read-out: Log TGI (converted)): 24 µM
- GI50 (DU-145): 2.88 µM
- TGI (DU-145; read-out: Log TGI (converted)): 13.8 µM
